In publication PMC9964938, “Synthesis and Properties of Sucrose- and Lactose-Based Aromatic Ester Surfactants as Potential Drugs Permeability Enhancers” (Pharmaceuticals, 2023):

Assays:
[1] = test system: Calu-3 monolayers; design: method as in PMID 29970849; details: Calu-3 cells, non-cytotoxic concentration, reversible; cited from earlier work
[2] = test system: Calu-3 monolayers; assay: TEER measurement; type: cell-based, human; details: Calu-3 cells; for effect on TEER: surfactant 4 mM in HBSS, 3 h; for decrease in TEER with respect to basal value: surfactant 4 mM, reversible
Description: TEER studies were performed in Calu-3 cells (Figure 4) to preliminarily evaluate the potential use of the synthesized sugar esters as absorption enhancers. […] .
Calu-3 cells were seeded on filter inserts Transwell® at ~200,000 cells per insert. The cells were cultured in Dulbecco Modified Eagle Medium (DMEM)-F12 to confluence for around three weeks using an air–liquid culture condition. The culture medium was changed every 48 h. […] Baseline TEER was recorded following 30 min of equilibration in HBSS. […] The cells were incubated with the samples or HBSS as a control for 3 h. During this period, TEER was measured every 30 min. The samples were then removed and the cells were washed extensively using HBSS. Culture medium was added to the basolateral chamber and a further measurement of TEER was taken at 24 h following sample application to establish TEER reversibility. The change in TEER was reported as a percentage relative to the baseline value.

[3] = CMC by dynamic light scattering (counts); type: physicochemical; details: counts vs concentration, 25 °C
Description: The DLS from the counts analysis confirmed the self-assembling properties of the amphiphiles analyzed as evidenced by the fluorescence measurements. Figure 2b reports the variation in the scattering intensities to the detector (kCps) as a function of the surfactant concentration.
As unimers, instead, the hydrodynamic sizes of the surfactant molecules were too small and the scattering properties of the solutions were not markedly different from those of the medium.
The scattering intensity to the detector (counts, kCps) was measured for different concentrations (0.03–4 mM) of surfactant solution using a Malvern Zetasizer Nano S (Malvern, Worcestershire, UK). Measurements were performed at 25 °C at a fixed laser position (4.65) and attenuation (11). CMC values were calculated from counts versus concentration plots by fitting the experimental data using the segmental linear regression model (GraphPad Prism 6 software).

[4] = CMC by pyrene fluorescence spectroscopy; type: physicochemical; details: pyrene I/III peak ratio, aqueous solution, 25 °C
Description: Pyrene is a common fluorescence probe, widely employed to investigate the aggregation state of surfactant in aqueous solution, as its emission properties are strongly influenced by the polarity of the microenvironment. Specifically, a decrease in the ratio between I and III peaks is observed when the hydrophobicity increases in the surroundings of pyrene as a result of the aggregation of surfactants into micelles or supramolecular aggregates. […] As is common for surfactants, the concentration at which aggregation in aqueous solution occurs is strongly dependent on the hydrophilicity/hydrophobicity balance between the surfactant head and tail. Specifically, changes in the hydrophobicity of the surfactant tail exert a marked effect on the self-assembling properties for a surfactant bearing the same polar head. On the contrary, the variation in the sugar head has a minor effect.
The pyrene emissions in the surfactant solutions at different concentrations (0.03–4 mM) were measured using a LS 55 fluorescence spectrometer (PerkinElmer, Waltar, MA, USA) equipped with a thermostatic bath HAAKE C25P (Artisan Scientific Corporation, Champaign, IL, USA). For the analyses, three microliters of the pyrene solution in CH3OH (2 μM) were added to each of the aqueous surfactant solutions. The excitation wavelength was 334 nm. Ten acquisitions were recorded for each solution in the range of 200–700 nm at a temperature of 25 °C. The peak intensity I (λ = 372 nm) to III (λ = 384 nm) ratio was plotted against the surfactant concentrations. CMC values were calculated from the center of the sigmoid by fitting the experimental data through the Boltzmann nonlinear regression (GraphPad Prism 6 software) according to the following equation: bottom+(top−bottom)/1+10^[(logCMC−x)hill slope] where the top and bottom are the plateau of the curve and the hill slope is the steepness.

[5] = test system: Calu-3 cells; assay: MTT cell viability assay; type: cell-based, human; details: 3 h incubation
Description: All the compounds were tested to evaluate their cytotoxicity profile on Calu-3 cells. The MTT colorimetric assay, based on the reduction of a yellow tetrazolium salt MTT to purple formazan crystals by metabolically active cells, was used to measure the cellular metabolic activity as an indicator of cell viability, proliferation, and cytotoxicity. Indeed, the viable cells contain NAD(P)H-dependent oxidoreductase enzymes, which reduce MTT to formazan. […] Moreover, the LDH release assay, used to assess the level of plasma membrane damage in a cell population, was performed to evaluate the cytotoxicity of the sugar esters. LDH is in fact a stable enzyme found in all cell types and is rapidly released into the cell culture medium following damage to the plasma membrane that occurs after cell damage or death. […]
Calu-3 cells were seeded on 96-well plates at ~50,000 cells per well and were incubated to attain at least 80% confluence before the experiment. Prior to the assay, the culture medium was removed and replaced with different concentrations of surfactants (0.03 to 4.5 mM for the fluorescence spectroscopy and DLS analysis) in Hank’s balanced salt solution (HBSS). […] The supernatant was collected for the LDH assay and the cell viability was measured with the MTT assay according to the manufacturers’ instructions, with at least three repeats for each sample.

[6] = test system: Calu-3 monolayers; assay: FITC-dextran in vitro cell permeability study; details: surfactant 4 mM
Description: Cell monolayers with TEER over 800 Ω were used in these studies to ensure the integrity of the monolayers. FITC-dextran MW 4000 was used as a model macromolecular drug. Prior to sample application, the culture medium was removed, and the cell layers were washed with HBSS. The cells were equilibrated in HBSS for 30 min. Sucrose ester solutions at 4 mM and dextran at a final concentration of 0.5 mg/mL in HBSS were applied to the apical side of the cells. HBSS was added to the basolateral side. A basolateral solution of 100 µL was collected at 30, 60, 90, 120, 150, and 180 min after sample application and replaced with an equivalent volume of fresh HBSS. The amount of dextran permeating the cell monolayers in 3 h was quantified by spectrofluorometric analysis.

| Molecule | TEER, % of the baseline value after decrease [1] | effect on TEER [2] | Dynamic Light Scattering CMC [3] | Fluorescence Spectroscopy CMC [4] | decrease in TEER with respect to basal value [2] | cell viability (MTT) ([5]; highest tested concentration of 4.5 mM) | permeation enhancing effect on FITC-dextran Papp ([6]; Calu-3 cell layers, FITC-dextran MW 4000 0.5 mg/mL) | increase in FITC-dextran permeability vs control ([6]; Calu-3 cells, non-statistically significant vs control) | cell viability (MTT), lowest level reached ([5]; 0.03 to 4.5 mM) |
| --- | --- | --- | --- | --- | --- | --- | --- | --- | --- |
| CCCCCCCCCCCC(=O)OCC1OC(OC2C(CO)OC(O)C(O)C2O)C(O)C(O)C1O (stereo not shown) [6′-lactose laurate] | ~ 25% |  |  |  |  |  |  |  |  |
| O=C(Cc1ccccc1)OC[C@H]1O[C@H](O[C@]2(CO)O[C@H](CO)[C@@H](O)[C@@H]2O)[C@H](O)[C@@H](O)[C@@H]1O [URB1480, β-D-fructofuranosyl 6-O-(2-Phenylethanoyl)-α-D-glucopyranoside] |  | only poorly affected TEER | 0.791 ± 0.045 mM | 0.861 ± 0.076 mM |  |  |  |  |  |
| O=C(OC[C@H]1O[C@H](O[C@]2(CO)O[C@H](CO)[C@@H](O)[C@@H]2O)[C@H](O)[C@@H](O)[C@@H]1O)c1ccc(-c2ccccc2)cc1 [URB1481, β-D-fructofuranosyl 6-O-[2-(4-Phenyl)benzoyl]-α-D-glucopyranoside] |  | most effective surfactants for decreasing TEER | 0.329 ± 0.023 mM | 0.305 ± 0.091 mM | ~ 30% | above 70% | more prominent permeation enhancing effect | three-fold increase |  |
| O=C(Cc1ccc(-c2ccccc2)cc1)OC[C@H]1O[C@H](O[C@]2(CO)O[C@H](CO)[C@@H](O)[C@@H]2O)[C@H](O)[C@@H](O)[C@@H]1O [URB1482, β-D-fructofuranosyl 6-O-[2-(4-Phenyl)phenylethanoyl]-α-D-glucopyranoside] |  | moderate action | 0.181 ± 0.026 mM | 0.095 ± 0.015 mM |  |  |  |  |  |
| Lactose p-biphenyl acetate [URB1421] |  | moderate action | 0.259 ± 0.063 mM | 0.110 ± 0.017 mM |  |  |  |  |  |
| Lactose p-phenyl benzoate [URB1420] |  | most effective surfactants for decreasing TEER | 0.344 ± 0.034 mM | 0.270 ± 0.015 mM | ~ 30% |  |  |  |  |
| Lactose phenyl acetate [URB1419] |  | moderate action | 0.729 ± 0.075 mM | 0.753 ± 0.084 mM |  |  |  |  | ≥ 70% |
